We go through one molecule from EP0366385A1, “Guanine derivatives having antiviral activity and their pharmaceutically acceptable salts” (THE WELLCOME FOUNDATION LIMITED, priority 1988, dated 1990).

This assay concerns HIV. Nature of the assay: Antiviral activity against HIV (method of Mitsuya et al.). In kind it is cell-based. Conditions: Human immunodeficiency virus 1, read-out: IC₅₀. Here is the method: The title compound of Example 1G (L-valine ester) and the title compound of Example 1F (the 1S, 4R enantiomeric form of carbovir) were tested for activity against HIV generally in accordance with the method described by Mitsuya et al, Proc. Natl. Acad. Sci. Vol. 82, pp 7096-7100, Oct. 1985 and found to have activity against HIV at the following concentrations

For the molecule `Nc1nc2c(ncn2[C@H]2C=C[C@@H](CO)C2)c(=O)[nH]1` [Example 1F, (1R, 4S)-9-(4-Hydroxymethyl-2-cyclopentenyl)guanine], the IC50 stood at 2.5 µM.
